Measurements reported in patent US20150335548A1, “Oral Care Composition” (COLGATE-PALMOLIVE COMPANY, priority 2012, published 2015).
Entries after “also recorded” stand apart in the source; their conditions may differ.

Columns and labels:
dental plaque = assay: Dissolution of plaque; conditions: water-insoluble plaque vortex mixed with ionic liquid at room temperature, centrifuged at 13,000 g
Method: Dental plaque samples were obtained from subjects and treated with water to remove any water soluble actives. The samples were centrifuged at 13,000 g and the supernatant was collected and discarded. The remaining plaque that was insoluble in water was used to evaluate the plaque solubilizing potential of the ionic liquids.
Ionic liquids were added to the plaque sample, and the plaque sample was vortex mixed at room temperature. To ensure that the plaque was not simply suspended in the ionic liquid, the plaque containing vial with the ionic liquid was subsequently centrifuged at 13,000 g.
Plaque may form a suspension when mixed with water and that, on centrifugation, it is visible as an insoluble pellet.

[1] = tested on: 3-day old biofilm of the artificial mouth consortium of bacteria (A. naeslundii, S. oralis, V. parvula, L. casei, F. nucleatum) and S. mutans; assay: In vitro biofilm removal, 3-day old biofilm (protocol of Example 2); assay type: cell-based
Method: The 3-day old biofilm was grown on a 24 well plate using the artificial mouth consortium of bacteria (A. naeslundii, S. oralis, V. parvula, L. casei, F. nucleatum) and S. mutans. To generate the biofilm, plates were inoculated with saliva overnight to form a pellicle. The consortium of bacteria (1 mL) at an OD of ˜0.2 was added to each well. The bacterial media (Tryptic Soy Broth with 6% sucrose) was changed after 48 hours. The 3-day old biofilm was treated with the prototype formulation (500 μL) for 15 minutes on a plate shaker at 300 rpm. After incubation, the supernatant was discarded. The optical density of each well was measured and the percentage reduction in optical density relative to the control (water) was calculated to determine the effect of the prototype formulation on biofilm removal. […]
Water, untreated biofilm, commercially available mouthwash formulations with CPC (Cetyl pyridinium chloride) and a mouthwash containing five enzymes for combatting biofilm acted as […] for the experiment.

A. viscosus [2] = assay: Growth inhibition of A. viscosus (optical density over time); assay type: cell-based; conditions: for optical density of A. viscosus culture, 0 h / optical density of A. viscosus culture, 4 h / optical density of A. viscosus culture, 22 h / optical density of A. viscosus culture, 24 h: 10% concentration in a mouth rinse
Method: The effects of 1-decyl-3-methylimidazolium (DMIM) chloride on bacterial growth were investigated in vitro. DMIM chloride was incorporated into a prototype mouth rinse as illustrated in Table 17. […] The growth inhibition was measured as a change in optical density over time.
The antibacterial effects of various ionic liquids were determined according to the protocol described in Example 12.

[3] = Teeth whitening, in-vitro removal of tooth stains (one hour soak); design: species or system human; conditions: 1M in prototype mouth wash of Table 7
Method: The method of determining the effects of imidazolium-based ionic liquids on teeth whitening was carried out as follows:
The initial L*a*b* measurements of dried artificially stained human teeth were captured. The teeth were then soaked in 1 ml of sample solution for one hour, and sample was replenished at 30 minutes. After treatment, teeth were soaked in DI water for approximately 10 minutes. The teeth were left to dry at least overnight, and final L*a*b* measurements were then taken. (L*a*b* refers to stain score in accordance with the Commission International de L'Eclairage Laboratory (CIELAB) color scale. L* (lightness-darkness scale), a* (red-green chroma) and b* (yellow-blue chroma)).
The whitening efficacy was determined as follows:
All the EMIM-based compounds were evaluated at 1M concentration in a prototype mouth wash formulation as illustrated in Table 7.

A. viscosus [4] = assay: Short Interval Kill Test (SIKT); assay type: cell-based; conditions: 0.3, 0.6 and 1 wt % in the prototype mouth rinse
Text: SIKT determines the kill effect of a test article at a predetermined exposure time. […] The reaction was neutralized after 30 seconds by adding a neutralizing broth. The reaction mixture was further diluted and plated on MCA (Microbial Count Agar) plates for viable bacterial count.

[5] = EMIM-based ionic liquids, […] in base prototype mouth rinse of Table 1, 3-day old biofilm

SMILES	plaque dissolution (size of plaque pellet, visual) (dental plaque)	Percent Biofilm Removed [1, 5] [%]	optical density of A. viscosus culture, 0 h (A. viscosus [2])	optical density of A. viscosus culture, 4 h (A. viscosus [2])	optical density of A. viscosus culture, 22 h (A. viscosus [2])	optical density of A. viscosus culture, 24 h (A. viscosus [2])	Percent Removal of a 3-day Oral Biofilm ([1]; […] ionic liquid in base prototype mouth rinse of Table 1, 15 minutes, relative to water control) [%]	ΔE [3]	ΔL [3]	ΔW [3]	biofilm removal, comparison in words ([1]; 3-day old biofilm, listed as DMIM chloride)	Percent Biofilm Removed ([1]; other ionic liquids, 3-day old biofilm) [%]	growth inhibition of A. viscosus, in words (A. viscosus [2]; formulated at 0.312 wt %)	growth inhibition of A. viscosus, in words (A. viscosus [2]; formulated at 1 wt % in prototype mouth rinse of Table 17)	time to kill A. viscosus (A. viscosus [4]) [s]
CCn1cc[n+](C)c1.[Br-] [EMIM Br, 1-ethyl-3-methylimidazolium bromide]	size of the plaque pellet is reduced	48.6	0.1482	0.2216	0.7598	0.8533									
CCOS(=O)(=O)[O-].CCn1cc[n+](C)c1 [EMIM Ethyl SO4, EMIM ethyl sulfate]		48.1	0.1482	0.2499	0.7514	0.7965	48.1	4.41	3.40	−2.99					
CCCCCCCCCCn1cc[n+](C)c1.[Cl-] [DMIM Cl, 1-decyl-3-methylimidazolium chloride]											significantly more effective in removing biofilm than EMIM chloride and BMIM chloride; also recorded: most effective in removing biofilm	57.3	growth inhibition of A. viscosus is maintained	greater growth inhibition of A. viscosus than a 0.075 wt % CPC mouthwash	≤ 30
